Measured values from patent US9896458B2, “Compounds, compositions and methods” (Denali Therapeutics Inc., priority 0216, dated 2018).
Where two headings read alike, the source gives them in different places.

Assays:
[1] = Metabolic stability (hepatocytes); format: in vitro ADME; conditions: human cryopreserved hepatocytes, well-stirred model
Source text: Hepatic clearance is expressed as mL/min/kg.

[2] = in vivo
Description: (§1) The protein binding in plasma was determined using a Rapid Equilibrium Dialysis Device (Thermo Scientific RED Device) or 96-well dialyzer apparatus (HTDialysis LLC). […] If required, plasma samples were pre-incubated (2 hours at 37° C.) with diisopropyl fluorophosphate (DFP) at the final concentration of 100 μM to prevent compound degradation due to amide hydrolysis. Appropriate volumes of spiked samples along with blank phosphate buffer were added to either device and incubated at 37° C. for a total of 5 hours with agitation at 500 rpm. Following incubation, an equal aliquot of dialysed matrix (plasma or buffer) is added to an equal volume of the opposite blank matrix such that the volume of buffer to plasma are equal. Mixed matrix samples were extracted by protein precipitation using acetonitrile containing the appropriate IS. Samples were then centrifuged for 10 min at 2800 rpm. Supernatants were collected and diluted and then injected on to an HPLC-MS/MS or UPLC-MS/MS system. Samples were analyzed by monitoring the appropriate parent/daughter ion transitions for the test and control compounds. The peak area ratios were used to measure test item concentrations. The fraction unbound (Afu) was determined as the ratio of the peak area ratio in buffer divided by the peak area ratio in plasma.
(§2) The PK properties of test articles were determined in male Sprague-Dawley Crl:CD(SD) rats, male Beagle dogs and male cynomolgus monkeys. Studies were conducted to the highest standards of animal welfare in accordance with national legislation and under approval of the internal animal care and use committees.
(§3) Compounds were administered by IV bolus to animals following an overnight fast. […] The formulations were administered at dose volumes ranging from 0.5-2 mL/kg. The IV dose ranged from 0.5-1 mg/kg.
(§4) Following dose administration, 8-9 serial blood samples were collected over 24 hours. Samples were mixed with anticoagulant and placed on wet ice prior to processing. Plasma was harvested following centrifugation, extracted using protein precipitation with acetonitrile containing IS. The processed supernatant was analyzed using UPLC or LC-MS/MS using specific parent/daughter ion pairs for the test article and IS. Plasma concentrations were determined using a calibration curve prepared using known concentrations of analyte. Pharmacokinetic parameters utilizing measured concentrations were calculated using Phoenix WinNonlin. The unbound plasma clearance was calculated as the ratio of the total body clearance divided by the fraction unbound in plasma.

[3] = in vivo; remark: listed apart in the source
Description: as §1
The PK properties of test articles were determined in male Sprague-Dawley Crl:CD(SD) rats, male Beagle dogs and male cynomolgus monkeys. […]
Following dose administration, 8-9 serial blood samples were collected over 24 hours. […] The processed supernatant was analyzed using UPLC or LC-MS/MS using specific parent/daughter ion pairs for the test article and IS. Plasma concentrations were determined using a calibration curve prepared using known concentrations of analyte. Pharmacokinetic parameters utilizing measured concentrations were calculated using Phoenix WinNonlin. The unbound plasma clearance was calculated as the ratio of the total body clearance divided by the fraction unbound in plasma.

[4] = system: TNF/zVAD induced temperature loss; conditions: dose of 30 mg/kg, from WO 2014/125444 Table 2; cited from earlier work
[5] = system: TNF/zVAD induced temperature loss; assay: TNF-driven systemic inflammatory response syndrome model (TNF/zVAD); format: in vivo; conditions: mice, 5 mg/kg oral, 15 minutes before intravenous TNF/zVAD
Source text: The in vivo efficacy of compounds can be determined in mice using a TNF-driven systemic inflammatory response syndrome model as described by Duprez et. al. (2011, Immunity 35(6), 908-918) and Berger et. al. (2015, Cell Death Disc. 1, 15009). In this model system TNF/zVAD (tumor necrosis factor/Z-Val-Ala-DL-Asp-fluoromethylketone, a caspase inhibitor) treatment results in temperature loss and the production of several inflammatory cytokines. The ability of a test compound to inhibit these inflammatory effects can be measured in this model by dosing mice with test compound 15 minutes before administration of TNF/zVAD and measuring the inflammatory response. The dose required to inhibit the inflammatory response is a measure of the compounds efficacy at that dose. Using this model, Compound 42 was orally pre-dosed at 5 mg/kg 15 minutes before intraveneous administration of TNF/zVAD and temperature loss in the mice was measured by an implanted temperature chip. […] The decrease in dosing has a number of important potential advantages, including requiring less frequent administration to a patient, increased patient compliance, and improved safety profile such as lower toxicities while achieving similar efficacy.

[6] = cynomolgus monkey, in vivo
Description: as §1, §2, §3, §4

[7] = system: FADD-deficient Jurkat cells; assay: cellular necroptosis assay (human TNFα induced); format: cell-based; conditions: 48 h, human TNFα 10 ng/mL, viability after 48 h, CellTiter-Glo, read-out: Cell IC50
[8] = male, Sprague-Dawley Crl:CD(SD)

CN1C(=O)[C@@H](NC(=O)c2nnc(Cc3ccccc3)[nH]2)COc2ccccc21 [A, reference compound]
Human hepatocyte CLhep Avg [1]: 6.8 mL/min/kg
Rat unbound CL [2, 8]: 77 mL/min/kg
Dog unbound CL ([3]; male, Beagle): 240 mL/min/kg
inhibition of temperature loss [4]: 93%

CN1C(=O)[C@@H](NC(=O)c2nnc(Cc3ccccc3)o2)COc2ccccc21 [B, reference compound]
Human hepatocyte CLhep Avg [1]: 14 mL/min/kg

CN1C(=O)[C@@H](NC(=O)c2cc(Cc3ccccc3)on2)COc2ccccc21 [C, reference compound]
Human hepatocyte CLhep Avg [1]: 19 mL/min/kg

CN1C(=O)[C@@H](NC(=O)c2cc(C3(c4ccccc4)CC3)on2)COc2ccccc21 [Example 8, (S)-N-(5-methyl-4-oxo-2,3,4,5-tetrahydrobenzo[b][1,4]oxazepin-3-yl)-5-(1-phenylcyclopropyl)isoxazole-3-carboxamide]
Rat unbound CL [2, 8]: 3700 mL/min/kg

CN1C(=O)[C@@H](NC(=O)c2nnc(Cc3ccccc3)[nH]2)COc2cccnc21 [Example 42, (S)-5-benzyl-N-(5-methyl-4-oxo-2,3,4,5-tetrahydropyrido[3,2-b][1,4]pxazepin-3-yl)-4H-1,2,4-triazole-3-carboxamide]
Human hepatocyte CLhep Avg [1]: 0.8 mL/min/kg
inhibition of temperature loss [5]: 96%

CN1C(=O)[C@@H](NC(=O)c2nc(Cc3ccccc3)n[nH]2)COc2cccnc21 [Example 42]
Rat unbound CL [2]: 22 mL/min/kg
Dog unbound CL [3]: 64 mL/min/kg
Cyno unbound CL [6]: 42 mL/min/kg

CN1C(=O)[C@@H](NC(=O)c2nnc(C3(c4ccccc4)CC3)o2)COc2cccnc21 [Example 66, (S)-N-(5-methyl-4-oxo-2,3,4,5-tetrahydropyrido[3,2-b][1,4]oxazepin-3-yl)-5-(1-phenylcyclopropyl)-1,3,4-oxadiazole-2-carboxamide]
Human hepatocyte CLhep Avg [1]: 6.3 mL/min/kg
Dog unbound CL ([3]; male, Beagle): 36 mL/min/kg

O=C(N[C@H]1COc2ccccc2-n2ccnc21)c1cc(Cc2ccccc2)on1 [Example 70A, (R)-5-benzyl-N-(4,5-dihydrobenzo[b]imidazo[1,2-d][1,4]oxazepin-4-yl)isoxazole-3-carboxamide]
IC50 [7]: 0.1 to 1000 nM

CN1C(=O)[C@@H](NC(=O)c2nnc(Cc3ccccc3)[nH]2)[C@H]2C[C@H]2c2cccnc21 [Example 75A, 5-benzyl-N-((1aS,2S,8bR)-4-methyl-3-oxo-1,1a,2,3,4,8b-hexahydrocyclopropa[d]pyrido[2,3-b]azepin-2-yl)-4H-1,2,4-triazole-3-carboxamide]
Human hepatocyte CLhep Avg [1]: 9.1 mL/min/kg
Rat unbound CL [2, 8]: 91 mL/min/kg
Cyno unbound CL ([6]; male): 93 mL/min/kg

CN1C(=O)[C@@H](NC(=O)c2cc(C3(c4ccccc4)CC3)on2)COc2cccnc21 [Example 77, (S)-N-(5-methyl-4-oxo-2,3,4,5-tetrahydropyrido[3,2-b][1,4]oxazepin-3-yl)-5-(1-phenylchclopropyl)isoxazole-3-carboxamide]
Human hepatocyte CLhep Avg [1]: 19 mL/min/kg

O=C(N[C@@H]1C(=O)Nc2c(F)cc(F)cc2[C@@H]2C[C@H]12)c1nnc(Cc2ccccc2)[nH]1 [Example 83A, 5-benzyl-N-((1aS,2S,8bR)-5,7-difluoro-3-oxo-1,1a,2,3,4,8b-hexahydrobenzo[b]cyclopropa[d]azepin-2-yl)-4H-1,2,4-triazole-3-carboxamide]
Human hepatocyte CLhep Avg [1]: 1.0 mL/min/kg
Cyno unbound CL ([6]; male): 82 mL/min/kg

C[C@H]1Oc2cccnc2N(C)C(=O)[C@H]1NC(=O)c1nn(Cc2ccccc2)cc1F [Example 92, 1-benzyl-N-((2R,3S)-2,5-dimethyl-4-oxo-2,3,4,5-tetrahydropyrido[3,2-b][1,4]oxazepin-3-yl)-4-fluoro-1H-pyrazole-3-carboxamide]
Rat unbound CL [2, 8]: 420 mL/min/kg

C[C@H]1Oc2cccnc2N(C)C(=O)[C@H]1NC(=O)c1nnc(Cc2ccccc2)[nH]1 [Example 94, 5-benzyl-N-((2R,3S)-2,5-dimethyl-4-oxo-2,3,4,5-tetrahydropyrido[3,2-b][1,4]oxazepin-3-yl)-4H-1,2,4-triazole-3-carboxamide]
Rat unbound CL [2, 8]: 44 mL/min/kg
Cyno unbound CL ([6]; male): 40 mL/min/kg

C[C@H]1Oc2cccnc2N(C)C(=O)[C@H]1NC(=O)c1nnc(Cc2ccccc2)o1 [Example 134, 5-Benzyl-N-((2R,3S)-2,5-dimethyl-4-oxo-2,3,4,5-tetrahydropyrido[3,2-b][1,4]oxazepin-3-yl)-1,3,4-oxadiazole-2-carboxamide]
Rat unbound CL [2, 8]: 100 mL/min/kg
Cyno unbound CL ([6]; male): 140 mL/min/kg

CN1C(=O)[C@@H](NC(=O)c2nnc(Cc3ccccc3)o2)COc2cccnc21 [Example 146, (S)-5-benzyl-N-(5-methyl-4-oxo-2,3,4,5-tetrahydropyrido[3,2-b][1,4]oxazepin-3-yl)-1,3,4-oxadiazole-2-carboxamide]
Rat unbound CL [2, 8]: 61 mL/min/kg
Cyno unbound CL ([6]; male): 39 mL/min/kg

CN1C(=O)[C@@H](NC(=O)c2ncn(Cc3cccc(C#N)c3)n2)COc2cccnc21 [Example 171, (S)-1-(3-cyanobenzyl)-N-(5-methyl-4-oxo-2,3,4,5-tetrahydropyrido[3,2-b][1,4]oxazepin-3-yl)-1H-1,2,4-triazole-3-carboxamide]
Rat unbound CL [2, 8]: 32 mL/min/kg

C[C@H]1Oc2cccnc2N(C)C(=O)[C@H]1NC(=O)c1ncn(Cc2cccc(C#N)c2)n1 [Example 172]
Rat unbound CL [2]: 65 mL/min/kg

CN1C(=O)[C@@H](NC(=O)c2nnc(Cc3ccccc3)o2)[C@H]2C[C@H]2c2nccnc21 [Example 177A]
Rat unbound CL [2]: 55 mL/min/kg
Cyno unbound CL [6]: 58 mL/min/kg

CN1C(=O)[C@@H](NC(=O)c2cn(Cc3ccccc3)nn2)[C@H]2C[C@H]2c2nccnc21 [Example 195, 1-benzyl-N-((7S,7aS,8aR)-5-methyl-6-oxo-5,6,7,7a,8,8a-hexahydrocyclopropa[d]pyrazino[2,3-b]azepin-7-yl)-1H-1,2,3-triazole-4-carboxamide]
IC50 [7]: 16 nM
